Assay results as given in patent publication US6153190A, “Erythropoietin receptor antibodies” (priority 1997, dated 2000).

How the values were obtained:
Type in all cases: cell-based
erythropoietin (Epo) [1] = experiment: Inhibition of Epo-induced proliferation of UT7-Epo cells; conditions: stated for all three assays
Experimental: An assay for the measurement of Epo activity on the proliferation of UT7Epo cells, which are dependent on Epo for growth [Komatsu et al., Blood, 82:456-464 (1993)] was performed as follows. The Epo used in the experiment is Epogen (2000 U/ml) [Amgen, Thousand Oaks, Calif.], diluted in phosphate buffered saline (PBS) and human serum albumin (HSA) for storage at 4° C. at 200 U/ml. Dilutions of cleaved EpoR or EpoRFc protein samples were made, so that final concentrations ranged from 0.001 to 100 ng/ml.
Samples of either EpoR or EpoRFc were added to wells at 10 ul/well in quadruplicate. Epo (0.2 U/ml) was added to each well. UT7Epo cells (1×10^5 cells/ml) were plated at 100 ul/well. After the plates were incubated at 37° C. for three days, 10 ul/well of ^3 H-thymidine (diluted to […] in IMDM+10% fetal calf serum (FCS)) were added to a final concentration of 10 uCi/ml. Plates were incubated at 37° C. for four hours with ^3 H-thymidine. The 96-well plates were harvested onto glass fiber filters using the Tomtec plate harvester with 10% cold TCA and cold 95% ethanol. Solid scintillant was melted onto the filters and the samples counted. The mean and standard error of quadruplicate samples was determined.
The data were reported as the percent of positive (0.2 U/ml) Epo control and are illustrated in FIG. 1.

erythropoietin (Epo) [2] = experiment: Inhibition of Epo-induced proliferation of 32D/Epo wt cells; conditions: stated for all three assays
Experimental: Another assay was performed for the measurement of Epo activity on the proliferation of 32D/Epo wt cells (Miura, O. et al., Mol. Cell. Biol., 13:1788-1795 (1993)). 32D/Epo wt is an IL-3 dependent cell line transfected with the human Epo receptor.
This assay is performed as described in Part A above, with the modification that the each well contains 1 U/ml Epo. The results of this assay are illustrated in FIG. 2.

erythropoietin (Epo) [3] = experiment: Inhibition of Epo-induced CFU-E colony formation; conditions: murine bone marrow CFU-E; stated for all three assays
Experimental: A third assay for measuring the ability of Epo to stimulate the differentiation of murine bone marrow cells to hemoglobin producing mature erythrocytes (CFU-E assay) was performed as described below.
Murine bone marrow cells were flushed from the femur of female B2D6F1 mice. The marrow cells (1×10^5 cells/ml final concentration) were mixed with IMDM, 25% FCS (final) and methylcellulose (0.8% final). 0.4 ml cells was plated per well of 24-well TC plate. EpoRFc (40 ul/well) samples were added and Epo (1 U/ml) was added to each well. Plates were incubated at 37° C., 5% CO2, 6% O2 for two days.
CFU-E colonies containing 8 or more red cells were counted. The mean and standard error of triplicate samples were determined and data reported as the percent of the positive (1 U/ml) Epo control. The results of this assay are illustrated in FIG. 3.

Measured: neutralization of the biological activity of Epo

EpoR: monomeric EpoR extracellular domain protein cleaved from EpoRFc with Factor Xa
able to bind, and thereby neutralize: all assays above
